Tests used:
[1] = molecular target: Dual specificity mitogen-activated protein kinase kinase 2 (Homo sapiens) (UniProt P36507); experiment: Selectivity interaction (KinomeScan (DiscoverX)) EUB0000695a MAP2K2; details: at 100 nM
[2] = molecular target: Mitogen-activated protein kinase kinase kinase 9 (Homo sapiens) (UniProt P80192); experiment: Selectivity interaction (KinomeScan (DiscoverX)) EUB0000695a MAP3K9; details: at 100 nM
[3] = molecular target: Sodium-dependent noradrenaline transporter (Homo sapiens, UniProt P23975); experiment: Selectivity interaction (GPCR panel (PDSP screen)) EUB0001079a SLC6A2; details: at 10 µM
[4] = molecular target: Serine/threonine-protein kinase pim-2 (Homo sapiens, UniProt Q9P1W9); experiment: Selectivity interaction (KinomeScan (DiscoverX)) EUB0000666a PIM2; details: at 10 µM
[5] = molecular target: T1, Serine/threonine-protein kinase Nek5 (Homo sapiens) (UniProt Q6P3R8); experiment: Selectivity interaction (KinomeScan (DiscoverX)) EUB0000666a NEK5; details: at 10 µM
T1 sequence (whole entry): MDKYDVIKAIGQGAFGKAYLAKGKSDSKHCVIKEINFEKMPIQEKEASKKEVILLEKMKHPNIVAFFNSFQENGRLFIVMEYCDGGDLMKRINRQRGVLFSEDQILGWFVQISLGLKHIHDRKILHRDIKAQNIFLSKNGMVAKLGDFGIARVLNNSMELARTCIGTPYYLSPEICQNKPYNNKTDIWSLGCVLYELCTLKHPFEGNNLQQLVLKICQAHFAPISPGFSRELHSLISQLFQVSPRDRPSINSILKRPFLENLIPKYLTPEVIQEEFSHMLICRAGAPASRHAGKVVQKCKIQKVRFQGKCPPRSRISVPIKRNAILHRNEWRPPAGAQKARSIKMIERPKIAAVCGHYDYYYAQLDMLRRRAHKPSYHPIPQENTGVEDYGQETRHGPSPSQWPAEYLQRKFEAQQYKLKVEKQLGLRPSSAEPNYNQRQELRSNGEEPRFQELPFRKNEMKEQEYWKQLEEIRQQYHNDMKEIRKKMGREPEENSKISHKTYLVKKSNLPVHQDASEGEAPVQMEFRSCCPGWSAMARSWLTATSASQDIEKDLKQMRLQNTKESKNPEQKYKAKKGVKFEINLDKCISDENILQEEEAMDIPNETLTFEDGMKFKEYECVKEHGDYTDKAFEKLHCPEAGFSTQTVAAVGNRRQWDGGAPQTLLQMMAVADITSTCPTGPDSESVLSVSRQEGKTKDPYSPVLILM

[6] = test system: Epidermal growth factor receptor (Homo sapiens), P00533 [UNDEFINED MUTATION]; details: at 10 µM
[7] = molecular target: T2, Serine/threonine-protein kinase TBK1 (Homo sapiens) (UniProt Q9UHD2); experiment: Selectivity interaction (Kinase screening (Nanosyn)) EUB0000604a TBK1
T2 sequence (whole entry): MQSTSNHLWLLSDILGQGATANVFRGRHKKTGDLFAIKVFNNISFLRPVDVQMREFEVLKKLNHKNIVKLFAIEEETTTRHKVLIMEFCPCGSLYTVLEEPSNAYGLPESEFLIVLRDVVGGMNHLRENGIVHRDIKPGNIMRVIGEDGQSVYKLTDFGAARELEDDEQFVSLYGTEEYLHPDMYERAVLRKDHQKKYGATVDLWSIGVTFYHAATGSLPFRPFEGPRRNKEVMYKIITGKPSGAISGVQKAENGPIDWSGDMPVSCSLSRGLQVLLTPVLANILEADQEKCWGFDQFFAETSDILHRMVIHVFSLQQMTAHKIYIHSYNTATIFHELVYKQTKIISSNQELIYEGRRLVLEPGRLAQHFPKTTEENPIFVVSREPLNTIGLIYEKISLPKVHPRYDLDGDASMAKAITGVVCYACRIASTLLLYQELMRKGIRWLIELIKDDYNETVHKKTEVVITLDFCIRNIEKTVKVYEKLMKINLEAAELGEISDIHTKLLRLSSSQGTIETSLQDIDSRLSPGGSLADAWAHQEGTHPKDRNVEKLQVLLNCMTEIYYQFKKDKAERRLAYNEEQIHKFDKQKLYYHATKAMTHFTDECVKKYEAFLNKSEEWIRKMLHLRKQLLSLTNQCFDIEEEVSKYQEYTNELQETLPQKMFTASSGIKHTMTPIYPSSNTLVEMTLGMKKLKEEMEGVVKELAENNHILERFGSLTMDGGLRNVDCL

Aurora kinase B = Aurora kinase B (Homo sapiens, UniProt Q96GD4); experiment: Selectivity interaction (Enzymatic assay) EUB0001550a AURKB
[8] = molecular target: Cyclin-dependent kinase 1/cyclin B (Homo sapiens) (UniProt P06493+P14635+Q8WWL7+O95067); experiment: Selectivity interaction (Millipore kinase profiler) EUB0000124b CDK1; assay type: protein-complex assay; details: at 10 µM
[9] = molecular target: Phosphatidylinositol 4-kinase beta (Homo sapiens, UniProt Q9UBF8); experiment: Selectivity interaction (ProQinase) EUB0000171b PI4KB
[10] = molecular target: Mitogen-activated protein kinase kinase kinase 10 (Homo sapiens) (UniProt Q02779); experiment: Selectivity interaction (ProQinase) EUB0000171b MAP3K10
[11] = molecular target: Tyrosine-protein kinase HCK (Homo sapiens) (UniProt P08631); experiment: Selectivity interaction (ActivX KiNativ screen (ex vivo kinase selectivity in human PBMCs)) EUB0001619a HCK; assay type: cell-based; details: PBMC, at 1 µM
[12] = molecular target: Ephrin type-A receptor 5 (Homo sapiens) (UniProt P54756); experiment: Selectivity interaction (SelectScreen profiling (Invitrogen)) EUB0000607a EPHA5; details: at 2 µM
[13] = molecular target: T3, Myosin light chain kinase, smooth muscle (Homo sapiens, UniProt Q15746); experiment: Selectivity interaction (KinomeScan (DiscoverX)) EUB0000618a MYLK; details: at 10 µM
[14] = molecular target: Serine/threonine-protein kinase 26 (Homo sapiens, UniProt Q9P289); experiment: Selectivity interaction (ActivX KiNativ screen (kinase selectivity in THP-1 cell lysates)) EUB0000639a STK26; assay type: subcellular; details: lysate, at 0.04 µM
[15] = molecular target: Mitogen-activated protein kinase kinase kinase 9 (Homo sapiens) (UniProt P80192); experiment: Selectivity interaction (KinomeScan (DiscoverX)) EUB0000655a MAP3K9; details: at 10 µM
[16] = molecular target: T3, Myosin light chain kinase, smooth muscle; details: at 10 µM

Sequence of Mitogen-activated protein kinase kinase kinase 10 (Homo sapiens) (Q02779 whole entry, looked up): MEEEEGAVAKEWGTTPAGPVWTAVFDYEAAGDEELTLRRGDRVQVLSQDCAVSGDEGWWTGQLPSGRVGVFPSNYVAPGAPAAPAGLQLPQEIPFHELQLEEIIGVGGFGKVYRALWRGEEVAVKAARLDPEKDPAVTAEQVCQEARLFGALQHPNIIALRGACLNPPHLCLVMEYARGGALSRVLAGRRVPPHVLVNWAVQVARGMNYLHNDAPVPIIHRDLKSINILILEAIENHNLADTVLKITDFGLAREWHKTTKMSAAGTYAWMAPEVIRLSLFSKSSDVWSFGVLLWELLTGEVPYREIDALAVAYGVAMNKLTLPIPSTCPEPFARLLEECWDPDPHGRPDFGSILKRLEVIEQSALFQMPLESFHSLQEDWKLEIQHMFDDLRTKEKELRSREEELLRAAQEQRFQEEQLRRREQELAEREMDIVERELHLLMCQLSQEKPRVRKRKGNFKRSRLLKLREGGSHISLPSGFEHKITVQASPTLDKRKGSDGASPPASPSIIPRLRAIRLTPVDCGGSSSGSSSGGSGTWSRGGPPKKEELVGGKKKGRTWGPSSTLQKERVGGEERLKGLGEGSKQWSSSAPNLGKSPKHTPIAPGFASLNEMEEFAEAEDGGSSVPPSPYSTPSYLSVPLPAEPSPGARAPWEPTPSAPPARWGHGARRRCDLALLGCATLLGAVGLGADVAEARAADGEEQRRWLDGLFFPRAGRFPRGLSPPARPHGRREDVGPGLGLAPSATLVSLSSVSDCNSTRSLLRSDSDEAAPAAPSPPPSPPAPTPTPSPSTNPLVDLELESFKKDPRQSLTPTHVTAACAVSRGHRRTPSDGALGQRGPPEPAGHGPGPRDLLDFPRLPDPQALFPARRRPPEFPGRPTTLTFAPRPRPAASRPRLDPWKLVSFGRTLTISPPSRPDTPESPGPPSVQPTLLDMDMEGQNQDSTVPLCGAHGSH
Sequence of Phosphatidylinositol 4-kinase beta (Q9UBF8 2-816 limits assumed): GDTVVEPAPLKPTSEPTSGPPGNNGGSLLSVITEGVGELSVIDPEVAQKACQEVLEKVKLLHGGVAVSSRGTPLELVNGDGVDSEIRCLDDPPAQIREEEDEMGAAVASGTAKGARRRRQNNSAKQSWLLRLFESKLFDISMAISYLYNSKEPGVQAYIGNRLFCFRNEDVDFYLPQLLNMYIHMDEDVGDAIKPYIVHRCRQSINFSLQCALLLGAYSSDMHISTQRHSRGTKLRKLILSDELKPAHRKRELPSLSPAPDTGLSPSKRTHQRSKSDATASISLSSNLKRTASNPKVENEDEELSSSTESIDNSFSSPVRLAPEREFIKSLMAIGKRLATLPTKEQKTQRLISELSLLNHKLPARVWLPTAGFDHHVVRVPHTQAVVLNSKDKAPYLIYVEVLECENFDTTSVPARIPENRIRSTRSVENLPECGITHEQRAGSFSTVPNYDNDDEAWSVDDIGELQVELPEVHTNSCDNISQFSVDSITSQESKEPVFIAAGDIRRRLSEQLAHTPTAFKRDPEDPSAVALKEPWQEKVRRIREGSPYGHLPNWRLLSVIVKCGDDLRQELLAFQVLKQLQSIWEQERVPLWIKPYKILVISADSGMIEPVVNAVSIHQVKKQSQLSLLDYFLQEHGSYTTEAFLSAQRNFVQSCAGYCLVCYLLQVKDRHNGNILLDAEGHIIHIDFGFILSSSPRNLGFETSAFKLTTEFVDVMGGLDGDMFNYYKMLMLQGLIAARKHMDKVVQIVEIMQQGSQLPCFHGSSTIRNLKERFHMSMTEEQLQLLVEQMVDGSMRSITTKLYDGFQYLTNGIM
Sequence of Mitogen-activated protein kinase kinase kinase 9 (Homo sapiens) (P80192 whole entry, looked up): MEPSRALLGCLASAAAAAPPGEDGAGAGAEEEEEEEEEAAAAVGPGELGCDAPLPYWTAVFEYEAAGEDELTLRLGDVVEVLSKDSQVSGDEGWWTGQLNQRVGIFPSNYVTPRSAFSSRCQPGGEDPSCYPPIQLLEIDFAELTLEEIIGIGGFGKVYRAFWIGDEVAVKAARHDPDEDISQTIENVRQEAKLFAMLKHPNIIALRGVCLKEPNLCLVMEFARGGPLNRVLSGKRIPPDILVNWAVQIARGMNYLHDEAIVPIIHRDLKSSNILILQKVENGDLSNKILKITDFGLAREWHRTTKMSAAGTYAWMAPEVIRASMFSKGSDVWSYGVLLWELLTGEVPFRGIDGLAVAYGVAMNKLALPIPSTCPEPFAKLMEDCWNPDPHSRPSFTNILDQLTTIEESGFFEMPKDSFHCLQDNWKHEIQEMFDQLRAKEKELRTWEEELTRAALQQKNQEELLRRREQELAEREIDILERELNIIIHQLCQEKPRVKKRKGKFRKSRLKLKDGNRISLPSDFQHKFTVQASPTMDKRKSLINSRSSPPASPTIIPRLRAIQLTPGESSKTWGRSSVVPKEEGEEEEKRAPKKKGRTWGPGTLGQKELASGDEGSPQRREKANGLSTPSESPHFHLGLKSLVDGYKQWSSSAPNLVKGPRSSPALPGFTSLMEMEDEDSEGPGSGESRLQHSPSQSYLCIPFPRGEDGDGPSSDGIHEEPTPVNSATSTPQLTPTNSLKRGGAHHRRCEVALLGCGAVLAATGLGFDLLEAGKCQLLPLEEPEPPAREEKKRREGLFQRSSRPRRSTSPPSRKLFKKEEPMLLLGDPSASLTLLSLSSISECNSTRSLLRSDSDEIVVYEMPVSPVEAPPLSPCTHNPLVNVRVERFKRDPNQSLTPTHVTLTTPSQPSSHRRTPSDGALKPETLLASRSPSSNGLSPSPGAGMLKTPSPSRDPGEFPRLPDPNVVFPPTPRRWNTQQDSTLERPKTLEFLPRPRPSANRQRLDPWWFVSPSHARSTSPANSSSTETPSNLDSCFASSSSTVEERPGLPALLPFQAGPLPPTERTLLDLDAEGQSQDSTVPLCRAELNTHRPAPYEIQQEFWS
T3 sequence (Q15746 whole entry): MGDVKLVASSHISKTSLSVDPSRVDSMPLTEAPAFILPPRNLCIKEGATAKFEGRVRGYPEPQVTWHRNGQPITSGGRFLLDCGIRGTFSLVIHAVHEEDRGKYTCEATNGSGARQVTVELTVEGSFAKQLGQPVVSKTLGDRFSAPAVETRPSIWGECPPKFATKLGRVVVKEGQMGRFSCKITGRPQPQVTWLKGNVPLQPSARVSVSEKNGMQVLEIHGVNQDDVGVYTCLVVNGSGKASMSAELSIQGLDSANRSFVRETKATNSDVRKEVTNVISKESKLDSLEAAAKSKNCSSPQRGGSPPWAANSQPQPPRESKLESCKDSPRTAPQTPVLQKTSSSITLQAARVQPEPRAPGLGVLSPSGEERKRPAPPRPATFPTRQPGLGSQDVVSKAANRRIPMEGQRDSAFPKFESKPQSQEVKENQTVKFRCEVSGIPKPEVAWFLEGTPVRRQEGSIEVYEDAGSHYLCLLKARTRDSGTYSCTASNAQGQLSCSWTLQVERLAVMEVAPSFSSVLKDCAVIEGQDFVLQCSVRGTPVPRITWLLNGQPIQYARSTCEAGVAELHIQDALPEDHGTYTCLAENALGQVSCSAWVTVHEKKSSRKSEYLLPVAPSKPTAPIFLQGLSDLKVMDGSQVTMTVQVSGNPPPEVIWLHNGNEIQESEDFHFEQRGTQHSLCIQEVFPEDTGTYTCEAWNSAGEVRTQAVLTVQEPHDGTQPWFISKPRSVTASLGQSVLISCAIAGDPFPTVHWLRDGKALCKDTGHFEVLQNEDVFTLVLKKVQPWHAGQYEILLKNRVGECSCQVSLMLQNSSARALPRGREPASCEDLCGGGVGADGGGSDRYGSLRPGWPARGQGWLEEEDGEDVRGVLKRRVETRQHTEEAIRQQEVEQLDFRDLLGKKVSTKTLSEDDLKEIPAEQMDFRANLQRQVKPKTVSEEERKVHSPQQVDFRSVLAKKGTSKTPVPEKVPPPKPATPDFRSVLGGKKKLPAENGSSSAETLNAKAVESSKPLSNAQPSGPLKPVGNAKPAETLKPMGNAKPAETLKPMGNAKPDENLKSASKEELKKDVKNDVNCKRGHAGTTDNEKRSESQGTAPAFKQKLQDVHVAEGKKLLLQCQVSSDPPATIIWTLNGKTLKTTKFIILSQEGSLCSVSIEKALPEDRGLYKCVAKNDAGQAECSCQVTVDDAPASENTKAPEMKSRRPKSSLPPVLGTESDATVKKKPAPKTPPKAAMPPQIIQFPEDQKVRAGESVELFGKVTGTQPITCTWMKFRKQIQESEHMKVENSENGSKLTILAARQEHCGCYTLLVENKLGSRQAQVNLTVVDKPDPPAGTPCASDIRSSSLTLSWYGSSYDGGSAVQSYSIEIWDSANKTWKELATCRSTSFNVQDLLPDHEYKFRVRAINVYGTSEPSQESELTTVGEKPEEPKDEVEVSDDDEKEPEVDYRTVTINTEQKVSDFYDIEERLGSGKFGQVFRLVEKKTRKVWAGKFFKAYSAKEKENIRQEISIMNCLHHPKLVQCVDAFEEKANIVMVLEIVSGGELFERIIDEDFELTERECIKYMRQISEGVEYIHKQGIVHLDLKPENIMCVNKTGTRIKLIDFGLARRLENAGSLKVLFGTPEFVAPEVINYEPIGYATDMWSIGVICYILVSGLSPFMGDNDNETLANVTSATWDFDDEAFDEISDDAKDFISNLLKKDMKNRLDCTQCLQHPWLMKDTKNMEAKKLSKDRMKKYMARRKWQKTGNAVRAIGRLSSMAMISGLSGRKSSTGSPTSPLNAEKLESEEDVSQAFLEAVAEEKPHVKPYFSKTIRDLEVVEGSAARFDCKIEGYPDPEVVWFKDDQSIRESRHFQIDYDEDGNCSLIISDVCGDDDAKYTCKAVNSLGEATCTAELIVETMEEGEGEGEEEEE
Sequence of Serine/threonine-protein kinase pim-2 (Q9P1W9 whole entry, looked up): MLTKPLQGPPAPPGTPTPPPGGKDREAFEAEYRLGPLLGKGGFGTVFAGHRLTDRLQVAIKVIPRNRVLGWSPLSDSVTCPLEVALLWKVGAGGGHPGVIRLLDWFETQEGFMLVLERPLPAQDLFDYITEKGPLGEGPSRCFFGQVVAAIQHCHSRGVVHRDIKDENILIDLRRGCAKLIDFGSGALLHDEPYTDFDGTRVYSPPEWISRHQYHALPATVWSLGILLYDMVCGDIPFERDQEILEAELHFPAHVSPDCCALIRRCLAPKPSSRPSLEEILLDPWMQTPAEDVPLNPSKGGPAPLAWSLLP

Q: For `Cc1cc(F)c(C(=O)Nc2cccc(-c3nncn3C(C)C)n2)cc1-n1cnc(C2CC2)c1`, which % of control [1] is on record?
A: The % of control was 97%.

Q: And the % of control [2]?
A: Its % of control is 99%.

Q: Which % of inhibition [3] does the source give for `Nc1cnc(N2CCc3cc(S(=O)(=O)Nc4c(F)cc(Cl)cc4F)cc(N4CCCC4=O)c32)nc1` [TP-020n] here?
A: Its % of inhibition is 18.2%.

Q: For `O=C(NOC[C@H](O)CO)c1ccc(F)c(F)c1Nc1ccc(I)cc1F`, which % of control [4] is on record?
A: The % of control was 75%.

Q: What about the % of control [5] of the same molecule?
A: The % of control was 78%.

Q: How did the % of control [6] turn out when `Cc1cc([C@@H](C)Nc2ccccc2C(=O)O)c2nc(N3CCOCC3)cc(=O)n2c1` [AZD-6482] was run?
A: Its % of control is 100%.

Q: `Cc1cnc(Nc2ccc(F)cc2Cl)nc1-c1c[nH]c(C(=O)N[C@H](CO)c2cccc(Cl)c2)c1` was tested. Which % of inhibition [7] did it give?
A: Its % of inhibition is 3%.

Q: For `CN(C)CC#Cc1ccc2[nH]c3c(c2c1)-c1nc(N)ncc1CCC3`, which IC50 (Aurora kinase B) is on record?
A: Its IC50 is 1400 nM.

Q: For `CC(=O)Nc1cccc(-n2c(=O)n(C3CC3)c(=O)c3c(Nc4ccc(I)cc4F)n(C)c(=O)c(C)c32)c1`, which % of control [8] is on record?
A: Its % of control is 104%.

Q: Which results are given for `C=CC(=O)Nc1cccc(C(=O)Nc2ccc(Nc3cc(-c4[nH]c(SC)nc4C)ccn3)cc2)c1`?
A: % of control ([9]; at 1 µM): 101%; % of control ([9]; at 5 µM): 79%; % of control ([10]; at 1 µM): 27%; % of control ([10]; at 5 µM): 4%

Q: How did the % of inhibition [11] turn out when `N#Cc1cccc(-c2c[nH]c3ncnc(N4CCOCC4)c23)c1` was run?
A: The % of inhibition was 21%.

Q: For `CNC(=O)Nc1ccc(-c2nc(N3CC4CCC(C3)O4)c3cnn(C4CCC5(CC4)OCCO5)c3n2)cc1`, which % of inhibition [12] is on record?
A: The % of inhibition was 2%.

Q: With `O[C@H]1CC[C@H](Nc2ncc3nc(Nc4c(F)cc(F)cc4F)n([C@H]4CCOC4)c3n2)CC1` as the molecule, how does the % of control [13] read?
A: Its % of control is 65%.

Q: How did the % of inhibition [14] turn out when `CC[C@@H]1[C@H](F)C(=O)N[C@@H]1COc1nccc2cc(C(N)=O)c(OC)cc12` [ZIMLOVISERTIB] was run?
A: The % of inhibition was -3.8%.

Q: How did the % of control [15] turn out when `CN(C)CCOc1ccc(-c2nc(-c3ccncc3)c(-c3ccc4c(c3)CC/C4=N\O)[nH]2)cc1` was run?
A: Its % of control is 100%.

Q: With `CCN(CC)CCCCNc1ncc2cc(-c3cc(OC)cc(OC)c3)c(NC(=O)NC(C)(C)C)nc2n1` as the molecule, how does the % of control [16] read?
A: Its % of control is 100%.

Source: ChEMBL document CHEMBL5465560, “Selectivity Literature for EUbOPEN Chemogenomic Library” (2024)
